Reference: patent publication US20240360109A1 (SHANGHAI HANSOH BIOMEDICAL CO., LTD., priority 2021, published 2024)

Key:
[1] = tested on: GLP-1R humanized C57BL/6 mice; experiment: Intraperitoneal glucose tolerance (ipGTT) after single administration in GLP-1R humanized mice; format: in vivo; settings: single administration 0.3 mg/kg, glucose 2 g/kg intraperitoneal 1 hour after administration, AUC 0-120 min, versus model control group
From the text: To evaluate the effect of single administration of the compound of the present invention on blood glucose changes in the intraperitoneal glucose tolerance (ipGTT) experiment in GLP-1R humanized C57BL/6 mice.
C57BL/6_hGLP-1R, male, 5-8 weeks; Ultra-clean workbench; Electronic balance; Vitality type blood glucose meter; Glucose.
3.1 On the day before the experiment, the animals were randomly divided according to their weight, with 5 animals per group. All animals were deprived of food overnight and fasted for more than 16 hours from the time of administration.
3.2 0.2 g/mL glucose solution was prepared with pure water and filtered by 0.22 µm filter membrane for use.
3.3 On the testing day, the blood glucose value of each animal was measured successively by tail clipping method before administration, which was recorded as Baseline value;
Blood glucose test method: the mouse was placed in the immobilizer, the tail tip was disinfected with an alcohol cotton ball, then a little tail tip was cut off with scissors, the first drop of blood was discarded, and the second drop of blood was dropped onto the prepared blood glucose test strip to detect the blood glucose value;
3.4 The animals were administered according to animal weight, and the administration time was record for each animal. After 1 hour of administration, the blood glucose value of each animal was measured sequentially, and recorded as the 0 minute blood glucose value;
3.5 Subsequently, according to the weight of the day, the aminals were immediately injected with pure water or glucose solution into the abdominal cavity, with a volume of 10 mL/kg and a glucose dose of 2 g/kg;
3.6 The blood glucose values of each mouse were measured, and the time and data were recorded after 15, 30, 60, 90, and 120 minutes of pure water or glucose solution injection;
The blood glucose (BG)-time curve was drawn, and the area under the blood glucose-time curve was calculated. The calculation formula is as follows: […]
Note: BG0, BG15, BG30, BG60, BG90, and BG120 represent blood glucose values before glucose administration (0 min) and 15, 30, 60, 90, and 120 min after glucose administration, respectively.
The blood glucose decline rate of AUC at each time point was calculated according to the average blood glucose value and AUC of blood glucose at each time point.

[2] = molecular target: T1, human GLP-1 receptor (Homo sapiens, UniProt P43220); experiment: Stimulation of human GLP1 receptor stable transgenic cell line CHO-K1/GLP-1R/CRE-luc to produce cAMP (HTRF); format: cell-based; settings: cAMP production, CHO-K1/GLP-1R/CRE-luc cells, 30 minutes incubation, 0.5 mM IBMX
T1 construct: expressed in transfected cells
From the text: I. Determination of the Ability of the Compound of the Present Invention to Stimulate Human GLP1 Receptor Stable Transgenic Cell Lines to Produce cAMP
The purpose of this test example is to determine the ability of the compound to activate the human GLP-1 receptor on the cell surface. The EC50 that stimulates […] after agonism characterizes the compound's ability to activate the human GLP-1 receptor.
The frozen human GLP1 receptor stable transgenic cell line CHO-K1/GLP-1R/CRE-luc was taken from the liquid nitrogen tank, quickly thawed in a 37° C. water bath, resuspended with DMEM/F12 medium, centrifuged, and washed once. The cells were resuspended with the experimental buffer, namely DMEM/F12 medium containing 0.1% casein, and the experimental buffer was used to adjust the cell density. The cells were spread on spread on a 384-well plate at a density of 2500 cells/5 μL/well, and then to each well was added 2.5 μL of buffer-prepared IBMX working solution with a final concentration of IBMX of 0.5 mM, and 2.5 μL of the compound sample with gradient dilution (starting at 1000 nM, 3-fold dilution, 11 concentrations). The plate was centrifuged at 1000 rpm for 1 minute, shaken for 30 seconds to mix well, and incubated at room temperature for 30 minutes. Detection was performed using the Cisbio cAMP—Gs Dynamic kit. cAMP-d2 and Anti-cAMP-Eu^3+-Cryptate were diluted 20-fold with cAMP Lysis & Detection Buffer, respectively, and mixed well. To each well was added 5 μL diluted cAMP-d2 solution, and then added 5 μL diluted Anti-cAMP-Eu3^+-Cryptate solution. The plate was shaken for 30 seconds, and incubated at room temperature for 1 hour in the dark. The signal reading of HTRF was performed using the Biotek Synergy H1 microplate reader with an excitation wavelength of 320 nm and emission wavelengths of 620 nm and 665 nm.
The signal ratio (665 nm/620 nm*10,000) was calculated, and the signal ratio and sample concentration were nonlinearly fitted using a four-parameter equation in GraphPad Prism 6 to obtain the EC50 value.

[3] = tested on: GLP-1R humanized C57BL/6 mice fed with high-fat diet; experiment: Long-term administration: body weight and ingestion of GLP-1R humanized mice fed with high-fat diet; format: in vivo; settings: HFD mice; for Weight (g)-D0 Mean: Day 0 (day of first administration, baseline), 10 mg/kg oral once a day; for Weight (g)-D10 Mean / Eeight (g)-D10 Mean: Day 10, 10 mg/kg oral once a day; for Body weight change(%)-D10 Mean: Day 10 versus Day 0, 10 mg/kg oral once a day
From the text: The purpose of this test is to evaluate the effects of long-term administration of the compound on the body weight and ingestion of GLP-1R humanized C57BL/6 mice fed with high-fat diet.
C57BL/6_hGLP-1R, male, 5-8 weeks; 60% high-fat diet (HFD); Ultra-clean workbench; Electronic balance.
3.1 On the day of feeding with high-fat diet, C57BL/6 mice were randomly divided into two groups according to their weight. The first group was Blank, with 7 mice fed with normal control diet, while the remaining animals were in the modeling group, fed with high-fat diet, and continued until the end of the experiment.
3.2 At the 8th week of HFD feeding, the modeling group animals were randomly divided with 7 animals per group according to their weight. The first group was the Vehicle group (Vehicle: 0.5% CMC Na+1% Tween 80), which was given vehicle; The remaining group was the administration group; Administration regimen: Oral administration of the corresponding compound, administration cycle was 14 days, once a day for 14 days, with an administration dose of 10 mg/kg and an administration volume of 10 mL/kg. The Blank group continued to be fed with normal diet without any administration operation.
3.3 The day of administration was defined as Day 0.
3.4 During each administration, animals were weighed and data was recorded. Oral administration is performed according to body weight, with an administration volume of 10 mL/kg.
3.5 Starting from Day 0 of the experiment, the food intake of each group of mice was measured once every three days. Specifically, the feed was changed after each weighing and administration, and the added and remaining amounts were recorded.
3.6 On the end day of Day 14, all mice were euthanized sequentially according to grouping order, and the livers were dissected and weighed.
The weight and weight change rate of mice after administration were summarize and statistically analyzed. Weight change rate calculation: (BWt−BW0)/BW0×100%. BWt represents the weight of the mice on Day t of the experiment, and BW0 represents the weight of the mice on Day 0 of the experiment.
Calculation of food intake: (added amount (g)−remaining amount (g))/number of animals per cage, cumulative food intake is the sum of daily food intake of each animal during the administration period.
Experimental data were analyzed using GraphPad Prism software. The t-test method was used for comparison between the two groups. The one-way ANOVA method was used for comparisons between three or more groups.

[4] = Pharmacokinetic assay of SD rats; format: in vivo; settings: Sprague-Dawley, rat, po; male SD rats, plasma, dose 50 mg/kg (b1219 prints 5 mg/kg)
Protocol: SD rats were used as test animals. The pharmacokinetic behavior of the following example compounds was studied in the plasma of rats administered orally at a dose of 50 mg/kg.
Vehicle formula: 0.5% CMC-Na (1% Tween 80);
Three SD rats per group, male. […]
Before and after administration, 0.2 mL of blood was collected from the jugular vein at 0, 0.25, 0.5, 1, 2, 4, 6, 8 and 24 hours, placed in EDTA-K2 tubes, centrifuged at 6000 rpm at 4° C. for 6 min to separate the plasma. The plasma samples were stored at −80° C. The […] was fed 4 hours after the administration.
• 1) 160 μL of acetonitrile was added to 40 μL of the plasma sample for precipitation, and then the mixture was centrifuged at 3500×g for 5-20 min. • 2) After the above process, 100 μL of the supernatant was taken to analyze the concentration of the test compound by LC/MS/MS.
• Liquid chromatography condition: Shimadzu LC-20AD pump Mass spectrometry condition: AB Sciex API 4000 mass spectrometer Chromatographic column: phenomenex Gemiu 5 μm C18 50×4.6 mm • Mobile phase: Eluent A was 0.1% formic acid in water, and Eluent B was methanol • Flow rate: 1.0 mL/min • Elution time: 0-4.0 minutes, the eluent is as follows:
The main pharmacokinetic parameters were calculated using WinNonlin 8.2.

[5] = early clinical practice; cited from earlier work

T1 sequence (P43220 24-463): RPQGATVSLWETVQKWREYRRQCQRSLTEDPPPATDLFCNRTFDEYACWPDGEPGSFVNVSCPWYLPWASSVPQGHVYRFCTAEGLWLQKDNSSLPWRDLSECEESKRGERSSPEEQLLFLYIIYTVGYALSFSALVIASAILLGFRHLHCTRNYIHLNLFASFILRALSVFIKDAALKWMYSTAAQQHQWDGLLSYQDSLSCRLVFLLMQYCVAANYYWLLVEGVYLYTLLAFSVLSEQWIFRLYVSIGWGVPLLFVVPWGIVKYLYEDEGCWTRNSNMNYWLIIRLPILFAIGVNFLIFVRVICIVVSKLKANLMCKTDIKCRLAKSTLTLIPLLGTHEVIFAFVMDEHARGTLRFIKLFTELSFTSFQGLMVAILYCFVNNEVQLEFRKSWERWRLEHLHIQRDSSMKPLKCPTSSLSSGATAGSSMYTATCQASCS

EC50 [2] [nM] | AUC(0-inf) [4] [ng·h/mL] | AUC(0-t) [4] [ng·h/mL] | Cmax [4] [ng/mL] | Tmax [4] [h] | half-life [4] [h] | Structure (SMILES) | Blood glucose decline rate of AUC % [1] [%] | Weight (g)-D0 Mean ([3]; the 3rd table) [g] | Weight (g)-D10 Mean ([3]; the 3rd table) [g] | Body weight change(%)-D10 Mean ([3]; the 3rd table) [%] | Weight (g)-D0 Mean ([3]; the 4th table) [g] | Eeight (g)-D10 Mean ([3]; the 4th table) [g] | Body weight change(%)-D10 Mean ([3]; the 4th table) [%] | hypoglycemic and weight reducing effects [5]
0.07 | – | – | – | – | – | [2H][C@]1(c2ccc(Cl)cc2F)C=Cc2cccc(C3CCN(Cc4nc5ccc(C(=O)O)nc5n4C[C@@H]4CCO4)CC3)c2O1 [Example 42, 2-((4-((R)-2-(4-Chloro-2-fluorophenyl)-2H-chromen-8-yl-2-d)piperidin-1-yl)methyl)-3-(((S)-oxetan-2-yl)methyl)-3H-imidazolo[4,5-b]pyridine-5-carboxylic acid] | 56.79 | 28.54 | 26.04 | −8.75 | – | – | – | –
0.04 | – | – | – | – | – | [2H]C([2H])([2H])Oc1cc(Cl)ccc1[C@@]1([2H])C=C(F)c2cccc(C3CCN(Cc4nc5ccc(C(=O)O)nc5n4C[C@@H]4CCO4)CC3)c2O1 [Example 41, 2-((4-((R)-2-(4-Chloro-2-(methoxy-d3)phenyl)-4-fluoro-2H-chromen-8-yl-2-d)piperidin-1-yl)methyl)-3-(((S)-oxetan-2-yl)methyl)-3H-imidazolo[4,5-b]pyridine-5-carboxylic acid] | 53.09 | 28.54 | 26.20 | −8.19 | – | – | – | –
0.06 | 21600 | 21500 | 7980 | 0.5 | 2 | O=C(O)c1ccc2nc(CN3CCC(c4cccc5c4O[C@@H](c4ccc(Cl)cc4F)C=C5)CC3)n(C[C@@H]3CCO3)c2c1 [Example 53] | – | – | – | – | 28.34 | 25.65 | −9.53 | –
0.05 | – | – | – | – | – | [2H]C([2H])([2H])Oc1cc(Cl)ccc1[C@@]1([2H])C=Cc2cccc(C3CCN(Cc4nc5ccc(C(=O)O)nc5n4C[C@@H]4CCO4)CC3)c2O1 [Example 43, 2-((4-((R)-2-(4-Chloro-2-(methoxy-d3)phenyl)-2H-chromen-8-yl-2-d)piperidin-1-yl)methyl)-3-(((S)-oxetan-2-yl)methyl)-3H-imidazolo[4,5-b]pyridine-5-carboxylic acid] | 46.57 | – | – | – | 28.37 | 26.57 | −6.37 | –
0.03 | 19100 | 19100 | 6400 | 2 | 3.8 | O=C(O)c1ccc2nc(CN3CCC(c4cccc5c4O[C@@H](c4ccc(Cl)cc4F)C=C5)CC3)n(C[C@@H]3CCO3)c2n1 [Example 48, 2-((4-((R)-2-(4-Chloro-2-fluorophenyl)-2H-chromen-8-yl)piperidin-1-yl)methyl)-3-(((S)-oxetan-2-yl)methyl)-3H-imidazolo[4,5-b]pyridine-5-carboxylic acid] | 62.89 | – | – | – | 28.23 | 25.85 | −8.44 | –
0.1 | 10800 | 10300 | 2300 | 1 | 2 | [2H][C@]1(c2ccc(Cl)cc2F)C=C(F)c2cccc(C3CCN(Cc4nc5ccc(C(=O)O)nc5n4C[C@@H]4CCO4)CC3)c2O1 [Example 40, 2-((4-((R)-2-(4-Chloro-2-fluorophenyl)-4-fluoro-2H-chromen-8-yl-2-d)piperidin-1-yl)methyl)-3-(((S)-oxetan-2-yl)methyl)-3H-imidazolo[4,5-b]pyridine-5-carboxylic acid] | – | 28.40 | 26.01 | −8.49 | – | – | – | –
– | – | – | – | – | – | N#Cc1ccc(COc2cccc(C3CCN(Cc4nc5ccc(C(=O)O)cc5n4C[C@@H]4CCO4)CC3)n2)c(F)c1 [PF-06882961] | – | – | – | – | – | – | – | significant hypoglycemic and weight reducing effects
